How the values were obtained:
purified TrxR = experiment: Purified TrxR activity assay (DTNB); assay type: biochemical; conditions: 0.625-20 µM
Method: Different concentrations of complex 6d solution and 1.8 U purified TrxR were added to the wells (25 µL per well separately). Consequently, the reaction solution (20 mg mL^−1 BSA, 500 mM EDTA‐2Na, and 40 mg mL^−1 NADPH, diluted in a 1:1 mixture of PBS and water) was added to the 96 wells (225 µL per well). Finally, 25 mg mL^−1 DTNB solution was added (25 µL per well) and OD values were immediately measured at 405 nm. The linear growth at 405 nm was calculated to show the purified TrxR activity. Final concentrations of complex 6d were 0.625, 1.25, 2.5, 5, 10, 20 µM.

PD-L1 = experiment: In vivo PD-L1 expression in tumor tissue; parameters: species or system C57BL/6 mice; conditions: western blot, 13 days of treatment
TrxR = molecular target: T1, TrxR (Homo sapiens, UniProt Q16881); experiment: Intracellular TrxR activity (kit, probe) and TrxR expression in HepG2; assay type: cell-based
T1 construct: endogenous in cells; host or cells: HepG2
T1 sequence (Q16881 151-649 limits assumed): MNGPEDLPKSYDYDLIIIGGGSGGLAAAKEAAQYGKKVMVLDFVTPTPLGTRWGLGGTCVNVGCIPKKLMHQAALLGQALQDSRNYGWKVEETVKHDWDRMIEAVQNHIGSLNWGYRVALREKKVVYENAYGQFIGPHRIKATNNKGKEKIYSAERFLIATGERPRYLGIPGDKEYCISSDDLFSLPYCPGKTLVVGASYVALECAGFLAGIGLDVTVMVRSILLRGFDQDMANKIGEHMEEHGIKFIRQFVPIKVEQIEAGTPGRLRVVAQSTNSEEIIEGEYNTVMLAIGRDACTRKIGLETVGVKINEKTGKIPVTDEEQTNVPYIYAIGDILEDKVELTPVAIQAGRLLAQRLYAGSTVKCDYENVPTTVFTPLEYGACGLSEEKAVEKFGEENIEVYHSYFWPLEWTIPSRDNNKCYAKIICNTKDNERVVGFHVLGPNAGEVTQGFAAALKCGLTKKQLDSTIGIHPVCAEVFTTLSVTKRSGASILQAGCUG
Method: 1 × 10^6 HepG2 cells were cultured in 6 cm culture dishes, and treated with DMF (0.1%), AF (4 µM) or different concentrations of 6d (2, 4, 8 µM) after cell adhesion. 24 h later, the intracellular TrxR activity was analyzed by the TrxR activity detection kit.
In addition, intracellular TrxR activity was detected by TrxR probe. 5 × 10^4 HepG2 cells were seeded in 12‐well plate. After 24 h, the complete medium was removed, and the each well was washed twice by phosphate buffer saline (PBS). 10 µM TrxR probe (dissolved in PBS) was added for 1 h incubation. Then, the probe was removed, and washing twice was performed by PBS. The fluorescence microscopy was applied to capture the cell images under the channel of FITC.
HepG2 cells were incubated in 6 cm culture dishes and treated with different complexes. The treated cells were lysed with lysis buffer (RIPA:PMSF:phosphatase inhibitor:protease inhibitor = 100:1:1:1). The lysed cells were further broken by sonication, and proteins were isolated by centrifugation. The protein concentrations were detected by BCA assay. 10% SDS PAGE gel was usually applied to separate the different kDa of proteins, and more than 200 kDa of proteins were separated using 8% SDS PAGE gel. After seperation, proteins were transferred onto polyvinylidene difluoride (PVDF) membranes. […] The target proteins’ bands were detected by the enhanced chemiluminescence (ECL) procedure.

immature DCs = experiment: DC maturation assay with medium of treated Hepa1-6 cells; assay type: cell-based, C57BL/6 mouse; conditions: 24 h
Method: The monocytes were extracted from the leg bone marrow of a C57BL/6 mouse and incubated in the 1640 complete medium with rmGM‐CSF (20 ng mL^−1) and IL‐4 (20 ng mL^−1). The medium was replaced partially every other day, and immature DCs were differentiated after 7 days. […] The medium from treated Hepa1‐6 cells was collected and coincubated with the differentiated DCs for 24 h. After cells collection, the coincubated DCs were labeled with CD11c antibody, CD80 antibody and CD86 antibody. Then, the DC maturation ratio was analyzed by a flow cytometer.

Hepa1-6 tumors = experiment: In vivo antitumor assay, Hepa1-6 tumors; parameters: species or system C57BL/6 mice
Method: All mice were 6–8 weeks old males and procured from Hangzhou Medical College, located in Hangzhou, China. […] 2 × 10^6 Hepa1‐6 cells in 100 µL DMEM were subcutaneously seeded in underarms of C57BL/6 mice. […] Meanwhile, the mice weights and tumor volume were recorded, and the calculation formula of tumor volume was Volume = Width^2 × Length/2. After 13 days, all mice were sacrificed for collection of tumors, hearts, livers, spleens, lungs and kidneys. Collagenase IV (1 mg mL^−1) and DNase I (1 µg mL^−1) were applied to digest a part of the tumor tissue into cell suspension, and lysis buffer was used to remove red blood cells. The prepared cells above were stained with antibodies (anti‐CD3e‐FITC, and anti‐CD8a‐PE; anti‐CD11c‐APC, anti‐CD80‐PE, and anti‐CD86‐FITC; anti‐CD45‐Percp, anti‐CD11b‐APC, and anti‐Ly‐6G/Ly‐6C(Gr‐1)‐FITC; anti‐CD11b‐APC, anti‐CD206‐PE, and CD86‐FITC). CD3^+CD8^+ T cells, CD80^+CD86^+ DCs, CD11b^+Gr‐1^+ MDSCs, CD206^−CD86^+ M1‐type macrophages and CD206^+CD86^− M2‐type macrophages were analyzed by flow cytometry. Then, another part of tumor tissues were fixed with 4% paraformaldehyde, embedded in paraffin, cut into slices and stained with antibodies for immunofluorescence and immunohistochemistry analysis.

CCn1ccn(CCCCCOc2ccc([C@@H]3COc4c(ccc5c4C=CC(C)(C)O5)C3)c(OCCCCCn3ccn(CC)[c]3=[Au][Br])c2)[c]1=[Au][Br] [6d]
purified TrxR activity (purified TrxR): suppressed TrxR activity
PD-L1 expression in tumor tissue (PD-L1): inhibited
TrxR expression level (western blot) (TrxR; HepG2, 24 h): did not downregulate TrxR expression levels
intracellular TrxR activity (TrxR; HepG2, 24 h, 2, 4, 8 µM, TrxR probe and activity assay kit): suppressed TrxR activity
DC maturation (immature DCs): significantly induced DC maturation
tumor volume growth vs model group (Hepa1-6 tumors; after 11 days of treatment, 5 mg kg^−1 i.p. every two days): significant reduction in tumor volume growth
tumor growth vs model group (Hepa1-6 tumors; after 13 days, 6d and OXA 5 mg kg^−1, GLA 10 mg kg^−1, i.p. every two days): significant tumor growth inhibition

Source: paper PMC12591170, “Glabridin‐Gold(I) Complex as a Novel Immunomodulatory Agent Targeting TrxR and MAPK Pathways for Synergistic Enhancement of Antitumor Immunity” (Advanced Science, 2025)
